This is an account of results in patent US20240023806A1, “METHOD FOR SELF-DIAGNOSIS AND METHOD FOR SELF-TREATMENT OF POSTERIOR SEGMENT EYE DISEASE” (priority 2022, published 2024).

Assay [1] concerns inflammatory vitreous opacity due to endotoxin-induced uveitis. Description: Endotoxin-induced uveitis (EIU) rabbit model: clinical grading of inflammatory vitreous opacity after DEX injection into the choroid through a tube. The assay is classed as in vivo. Conditions: day 2 after intravitreal LPS 100 ng; DEX solution 100 μg/100 μL injected into the choroid through the tube; 4 eyes; p<0.05 vs control (LPS only). Here is the method:
(§1) In order to investigate the effectiveness of the method for self-treatment of posterior segment eye disease according to an aspect of the present invention, whether the injection of dexamethasone (DEX) into the choroid through a tube suppresses inflammatory vitreous opacity due to endotoxin-induced uveitis was examined in a rabbit model.
All experiments were conducted in accordance with ARVO Statement for the Use of Animals in Ophthalmic and Vision Research and the Guidelines for Experimental Animals at Iwate Medical University. Three-month-old Japanese white rabbits (purchased from KITAYAMALABES CO., LTD.) weighing 2 to 2.5 kg were used. […]
After the tube insertion, endotoxin-induced uveitis (HU) was induced in 8 rabbits (8 eyes) by lipopolysaccharide (LPS) derived from Escherichia coli (manufactured by Sigma-Aldrich Co. LLC). […] Since maximal inflammatory symptoms were seen 2 days after injection, inflammatory vitreous opacity was evaluated 2 days after injection by ophthalmological observation and vitreous humor protein measurement. The amount of DEX injected was entered into the application and the amount of DEX was determined on the computer. The data on the quantity of DEX was then transmitted to a wireless injector (“Tofuty”, manufactured by ICOMES LAB Co., Ltd.). […]

Assay [2] shares this test system. Description: Endotoxin-induced uveitis (EIU) rabbit model: vitreous humor protein measurement. The class given is in vivo. To be noted: day 2 after intravitreal LPS 100 ng; DEX solution 100 μg/100 μL injected into the choroid through the tube; 4 eyes; p<0.05 vs control (LPS only).
Description: as §1
After the tube insertion, endotoxin-induced uveitis (HU) was induced in 8 rabbits (8 eyes) by lipopolysaccharide (LPS) derived from Escherichia coli (manufactured by Sigma-Aldrich Co. LLC). 100 ng of LPS solution was injected into the vitreous body using a 27G needle at a 12 o'clock position, 3 mm posterior to the corneal limbus. […] Since maximal inflammatory symptoms were seen 2 days after injection, inflammatory vitreous opacity was evaluated 2 days after injection by ophthalmological observation and vitreous humor protein measurement. The amount of DEX injected was entered into the application and the amount of DEX was determined on the computer. The data on the quantity of DEX was then transmitted to a wireless injector (“Tofuty”, manufactured by ICOMES LAB Co., Ltd.). […]
For protein measurements, four eyes in each group were used on day 2 after procedure. […] The protein content of vitreous humor was determined using a Bio-Rad assay kit with bovine serum albumin as a standard-dilution reference curve. […]

As to `C[C@@H]1C[C@H]2[C@@H]3CCC4=CC(=O)C=C[C@]4(C)[C@@]3(F)[C@@H](O)C[C@]2(C)[C@@]1(O)C(=O)CO` [DEX, dexamethasone], the “Clinical grading of vitreous opacity (grade 0 to 4)” value in assay [1] came to 0.75±0.96. The “Protein concentration in vitreous humor” value in assay [2] amounted to 20.5 ± 15.0 mg/mL.
